From patent publication US20240101576A1, “HETEROCYCLIC INHIBITORS OF EGFR AND/OR HER2, FOR USE IN THE TREATMENT OF CANCER” (Scorpion Therapeutics, Inc., priority 2020, published 2024)

Columns and labels:
Type in all cases: cell-based
[1] = molecular target: T1, EGFR L858R/C797S (Ba/F3 cells) (Homo sapiens, UniProt P00533, C797S/L858R); assay: Inhibitor activity on EGFR phosphorylation (pEGFR AlphaLISA, 2 h), Ba/F3 EGFR L858R/C797S
T1 construct: expressed in transfected cells; host or cells: Ba/F3 (murine pro-B cells), retroviral transduction, puromycin selection, IL3-independent pool
Summary of the method: (§1)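 IC50 values reflect inhibition of cellular EGFR phosphorylation, measured by AlphaLISA in lysates. Engineered Ba/F3 pools expressing mutant EGFR, selected with puromycin and cultured IL3-free, or CUTO14 cells, were exposed to compound for 2 hours.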

EGFR L858R (Ba/F3 cells) [2] = molecular target: T2, EGFR L858R (Ba/F3 cells) (Homo sapiens, UniProt P00533, L858R); assay: Inhibitor activity on EGFR phosphorylation (pEGFR AlphaLISA, 2 h), Ba/F3 EGFR L858R
T2 construct: expressed in transfected cells; host or cells: Ba/F3 (murine pro-B cells), retroviral transduction, puromycin selection, IL3-independent pool
Summary of the method: as §1

[3] = molecular target: T3, EGFR exon 20 ASV Ins V769_D770 (Ba/F3 cells) (Homo sapiens, UniProt P00533, INS769ASV); assay: Inhibitor activity on EGFR phosphorylation (pEGFR AlphaLISA, 2 h), Ba/F3 EGFR exon 20 ASV Ins; settings: EGFR phosphorylation, AlphaLISA, 2 hours; read-out: ASV IC50 (pEGFR)
T3 construct: expressed in transfected cells; host or cells: Ba/F3 (murine pro-B cells), retroviral transduction, puromycin selection, IL3-independent pool
Summary of the method: as §1

[4] = molecular target: T4, EGFR exon 19del (Ba/F3 cells) (Homo sapiens, UniProt P00533); assay: Inhibitor activity on EGFR-dependent cell growth (CellTiter-Glo, 72 h), Ba/F3 EGFR exon 19del; settings: Ba/F3 EGFR exon 19del cell growth, read-out: BaF3 Del19 IC50
Summary of the method: (§2)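 Mutant EGFR drives IL3-independent growth of engineered Ba/F3 pools. L858R cells go in at 400/well, L858R/C797S at 600, and exon 19del or FQEA insertion at 800. After 72 h with compound, plates are equilibrated 15 min at RT. Reagent is added 1:1, followed by 30 min and a luminescence read.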

EGFR L858R (Ba/F3 cells) [5] = molecular target: T2, EGFR L858R (Ba/F3 cells); assay: Inhibitor activity on EGFR-dependent cell growth (CellTiter-Glo, 72 h), Ba/F3 EGFR L858R; settings: read-out: BaF3 L858R IC50
Summary of the method: as §2

EGFR WT (Ba/F3 cells) = molecular target: T5, EGFR WT (Ba/F3 cells) (Homo sapiens, UniProt P00533); assay: Inhibitor activity on EGFR-dependent cell growth (CellTiter-Glo, 72 h), Ba/F3 EGFR WT; settings: read-out: BaF3 WT IC50
T5 construct: expressed in transfected cells; host or cells: Ba/F3 (murine pro-B cells), retroviral transduction, puromycin selection, maintained with EGF
Summary of the method: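 This growth assay used Ba/F3 cells that depend on wild-type EGFR and are kept in EGF without IL3. Compounds were made up as 10 mM DMSO stocks and diluted 3-fold over 10 points. 120 nL went onto 600 cells/well. After 72 hours, 40 μL CellTiter-Glo was added and luminescence read on EnVision after 30 min.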

[6] = molecular target: T6, EGFR exon 20 SVD Ins D770_N771 (Ba/F3 cells) (Homo sapiens, UniProt P00533, INS770SVD); assay: Inhibitor activity on EGFR phosphorylation (pEGFR AlphaLISA, 2 h), Ba/F3 EGFR exon 20 SVD Ins
T6 construct: expressed in transfected cells; host or cells: Ba/F3 (murine pro-B cells), retroviral transduction, puromycin selection, IL3-independent pool
Excerpt: Example B. Inhibitor Activity on EGFR phosphorylation (pEGFR)
EGFR mutant Ba/F3 cells were generated by transduction with retrovirus containing vectors expressing EGFR L858R, EGFR exon 19del, EGFR L858R/C797S, EGFR exon 20 NPG Ins D770_N771, EGFR exon 20 ASV Ins V769_D770, or EGFR exon 20 SVD Ins D770_N771 genes along with a puromycin selection marker. Transduced cells are selected with puromycin for 7 days and are then be transferred into culture media without Interleukin 3 (IL3). Surviving cells are confirmed to express EGFR by Western blot and maintained as a pool. CUTO14 cells were obtained from Dr. Robert C. Doebele at the University of Colorado. The IC50 date are included in Table 6 and Table 7.
1.1 Cells are harvested from flask into cell culture medium and the cell number counted.
1.2 Cells are diluted with culture medium to the desired density and 40 μL of cell suspension is added into each well of 384-well cell culture plate and the seeding density is 50K cells/well (Ba/F3) or 12.5K cells/well (CUTO14).
2 Compound Preparation and Treatment
2.1 Test compounds are dissolved to 10 mM in a DMSO stock solution. 45 μL of stock solution is transferred to a 384 polypropylene plate (pp-plate). Perform 3-fold, 10-point dilution via transferring 15 μL compound into 30 μL DMSO using a TECAN (EVO200) liquid handler.
2.2 Spin plates at room temperature at 1,000 RPM for 1 minute.
2.3 Transfer 5 nL of diluted compound from compound source plate into the cell plate.
2.4 After compound treatment for 2 hours, perform pEGFR detection by AlphaLISA for compound treatment plates as described in “Detection” section.
3 Detection by pEGFR AlphaLISA (Perkin-Elmer)
3.1 Plates are removed from incubators and equilibrated at room temperature for 10 minutes, and media was removed
3.2 10 μL of lysis buffer is added and plates shaken at 600 rpm for 1 hr.
3.3 Prepare acceptor mix just before use and dispense 5 μL of acceptor mix to all the wells. Shake 350 rpm for Ihr in the dark
3.4 Prepare donor mix under low light conditions prior to use. Dispense 5 μL of donor mix to all the wells. Mix well on the shaker, seal and wrap in aluminum foil and incubate 1.5 hrs at room temperature in the dark
3.5 Transfer 18.5 μL mixture to OptiPlate 384, and read using an Envision. The IC50 date were included in Table 6 and Table 7.

[7] = molecular target: T1, EGFR L858R/C797S (Ba/F3 cells); assay: Inhibitor activity on EGFR-dependent cell growth (CellTiter-Glo, 72 h), Ba/F3 EGFR L858R/C797S; settings: read-out: BaF3 L858R/C797S IC50
Summary of the method: as §2

[8] = molecular target: T6, EGFR exon 20 SVD Ins D770_N771 (Ba/F3 cells); assay: Inhibitor activity on EGFR-dependent cell growth (CellTiter-Glo, 72 h), Ba/F3 EGFR exon 20 SVD Ins; settings: read-out: BaF3 SVD IC50
Summary of the method: (§3)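 IC50s derive from a sigmoidal dose–response fit of CellTiter-Glo signal. The signal was normalised between […]-treated cells and cell-free medium. Ba/F3 mutant-EGFR cells, seeded at 400–800/well depending on the line, had 72 h of exposure to a 10-point, 3-fold compound series.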

[9] = molecular target: T7, EGFR exon 20 NPG Ins D770_N771 (Ba/F3 cells) (Homo sapiens, UniProt P00533, INS770NPG); assay: Inhibitor activity on EGFR-dependent cell growth (CellTiter-Glo, 72 h), Ba/F3 EGFR exon 20 NPG Ins; settings: read-out: BaF3 NPG IC50
T7 construct: expressed in transfected cells; host or cells: Ba/F3 (murine pro-B cells), retroviral transduction, puromycin selection, IL3-independent pool
Summary of the method: as §3

[10] = molecular target: T3, EGFR exon 20 ASV Ins V769_D770 (Ba/F3 cells); assay: Inhibitor activity on EGFR-dependent cell growth (CellTiter-Glo, 72 h), Ba/F3 EGFR exon 20 ASV Ins; settings: read-out: BaF3 ASV IC50
Summary of the method: as §3

[11] = molecular target: T8, EGFR exon 20 FQEA Ins A763_V764 (Ba/F3 cells) (Homo sapiens, UniProt P00533, INS763FQEA); assay: Inhibitor activity on EGFR-dependent cell growth (CellTiter-Glo, 72 h), Ba/F3 EGFR exon 20 FQEA Ins; settings: read-out: BaF3 FQEA IC50
T8 construct: expressed in transfected cells; host or cells: Ba/F3 (murine pro-B cells), retroviral transduction, puromycin selection, IL3-independent pool
Summary of the method: as §2

[12] = molecular target: T7, EGFR exon 20 NPG Ins D770_N771 (Ba/F3 cells); assay: Inhibitor activity on EGFR phosphorylation (pEGFR AlphaLISA, 2 h), Ba/F3 EGFR exon 20 NPG Ins
Summary of the method: as §1

[13] = molecular target: T4, EGFR exon 19del (Ba/F3 cells); assay: Inhibitor activity on EGFR phosphorylation (pEGFR AlphaLISA, 2 h), Ba/F3 EGFR exon 19del; settings: read-out: Del19 IC50 (pEGFR)
Summary of the method: as §1

EGFR (CUTO14 cells) = EGFR (CUTO14 cells) (Homo sapiens, UniProt P00533); assay: Inhibitor activity on EGFR phosphorylation (pEGFR AlphaLISA, 2 h), CUTO14 cells
Summary of the method: as §1

T8 sequence (P00533 with tags, fused parts or gaps INS763FQEA): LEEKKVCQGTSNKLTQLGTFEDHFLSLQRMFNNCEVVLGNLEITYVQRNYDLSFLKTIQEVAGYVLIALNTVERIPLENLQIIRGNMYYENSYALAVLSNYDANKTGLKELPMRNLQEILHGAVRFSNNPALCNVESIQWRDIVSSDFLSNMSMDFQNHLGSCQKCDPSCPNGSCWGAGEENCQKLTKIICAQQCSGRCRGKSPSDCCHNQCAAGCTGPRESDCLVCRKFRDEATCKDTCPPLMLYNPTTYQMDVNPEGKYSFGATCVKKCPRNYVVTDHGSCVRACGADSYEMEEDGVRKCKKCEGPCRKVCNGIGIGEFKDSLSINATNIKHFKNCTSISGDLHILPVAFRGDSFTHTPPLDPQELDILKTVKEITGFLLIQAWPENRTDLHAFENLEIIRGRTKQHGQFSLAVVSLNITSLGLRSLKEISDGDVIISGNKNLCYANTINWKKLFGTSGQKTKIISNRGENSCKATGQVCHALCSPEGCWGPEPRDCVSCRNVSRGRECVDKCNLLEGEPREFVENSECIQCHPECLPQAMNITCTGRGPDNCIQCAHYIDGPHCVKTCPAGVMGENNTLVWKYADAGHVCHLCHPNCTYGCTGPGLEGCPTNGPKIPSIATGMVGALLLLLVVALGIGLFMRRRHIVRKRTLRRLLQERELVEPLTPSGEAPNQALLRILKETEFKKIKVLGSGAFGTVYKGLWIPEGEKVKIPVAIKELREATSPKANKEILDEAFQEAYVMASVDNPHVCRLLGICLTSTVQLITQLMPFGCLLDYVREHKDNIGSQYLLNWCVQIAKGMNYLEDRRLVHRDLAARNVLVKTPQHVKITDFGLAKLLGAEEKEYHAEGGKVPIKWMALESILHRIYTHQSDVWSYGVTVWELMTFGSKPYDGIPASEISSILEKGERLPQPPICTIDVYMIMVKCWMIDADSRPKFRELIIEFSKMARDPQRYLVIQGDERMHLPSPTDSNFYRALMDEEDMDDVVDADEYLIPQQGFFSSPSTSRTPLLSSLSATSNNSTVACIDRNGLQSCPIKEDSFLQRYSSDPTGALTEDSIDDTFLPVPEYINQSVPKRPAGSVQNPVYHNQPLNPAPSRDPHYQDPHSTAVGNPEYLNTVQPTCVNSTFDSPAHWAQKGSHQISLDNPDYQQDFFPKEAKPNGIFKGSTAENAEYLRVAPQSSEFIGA
T4 sequence (P00533 with tags, fused parts or gaps DEL746-750): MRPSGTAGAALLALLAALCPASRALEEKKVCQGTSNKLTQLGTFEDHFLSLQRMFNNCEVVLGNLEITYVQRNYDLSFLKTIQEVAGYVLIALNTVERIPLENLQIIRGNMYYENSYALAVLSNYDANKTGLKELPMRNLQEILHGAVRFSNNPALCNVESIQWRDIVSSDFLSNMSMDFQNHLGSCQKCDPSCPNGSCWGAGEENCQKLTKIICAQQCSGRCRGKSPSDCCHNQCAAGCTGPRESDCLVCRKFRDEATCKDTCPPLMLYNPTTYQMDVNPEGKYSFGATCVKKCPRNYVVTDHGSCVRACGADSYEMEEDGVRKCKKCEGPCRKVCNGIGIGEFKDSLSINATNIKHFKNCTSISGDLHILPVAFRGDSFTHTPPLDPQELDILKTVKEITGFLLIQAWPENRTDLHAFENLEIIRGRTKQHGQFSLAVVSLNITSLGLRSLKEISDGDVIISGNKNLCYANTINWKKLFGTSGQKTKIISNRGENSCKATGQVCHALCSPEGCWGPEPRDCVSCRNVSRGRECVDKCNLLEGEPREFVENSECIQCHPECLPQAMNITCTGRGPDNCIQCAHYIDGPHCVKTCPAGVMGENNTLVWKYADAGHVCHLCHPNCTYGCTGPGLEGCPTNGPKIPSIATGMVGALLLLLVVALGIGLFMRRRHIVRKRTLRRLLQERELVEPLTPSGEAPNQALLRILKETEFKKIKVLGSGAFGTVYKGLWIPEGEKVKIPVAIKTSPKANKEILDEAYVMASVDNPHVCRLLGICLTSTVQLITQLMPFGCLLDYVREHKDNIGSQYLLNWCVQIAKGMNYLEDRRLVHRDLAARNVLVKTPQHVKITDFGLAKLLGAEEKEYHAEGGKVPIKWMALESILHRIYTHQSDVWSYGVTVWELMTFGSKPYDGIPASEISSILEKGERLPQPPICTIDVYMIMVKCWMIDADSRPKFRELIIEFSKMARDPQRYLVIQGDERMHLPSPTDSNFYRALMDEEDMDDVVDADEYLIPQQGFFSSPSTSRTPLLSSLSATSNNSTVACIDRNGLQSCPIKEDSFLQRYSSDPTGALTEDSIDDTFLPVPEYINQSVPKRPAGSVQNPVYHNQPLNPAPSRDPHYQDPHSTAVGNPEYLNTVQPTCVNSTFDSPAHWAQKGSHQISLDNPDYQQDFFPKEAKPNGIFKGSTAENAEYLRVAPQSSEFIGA
T6 sequence (P00533 with tags, fused parts or gaps INS770SVD): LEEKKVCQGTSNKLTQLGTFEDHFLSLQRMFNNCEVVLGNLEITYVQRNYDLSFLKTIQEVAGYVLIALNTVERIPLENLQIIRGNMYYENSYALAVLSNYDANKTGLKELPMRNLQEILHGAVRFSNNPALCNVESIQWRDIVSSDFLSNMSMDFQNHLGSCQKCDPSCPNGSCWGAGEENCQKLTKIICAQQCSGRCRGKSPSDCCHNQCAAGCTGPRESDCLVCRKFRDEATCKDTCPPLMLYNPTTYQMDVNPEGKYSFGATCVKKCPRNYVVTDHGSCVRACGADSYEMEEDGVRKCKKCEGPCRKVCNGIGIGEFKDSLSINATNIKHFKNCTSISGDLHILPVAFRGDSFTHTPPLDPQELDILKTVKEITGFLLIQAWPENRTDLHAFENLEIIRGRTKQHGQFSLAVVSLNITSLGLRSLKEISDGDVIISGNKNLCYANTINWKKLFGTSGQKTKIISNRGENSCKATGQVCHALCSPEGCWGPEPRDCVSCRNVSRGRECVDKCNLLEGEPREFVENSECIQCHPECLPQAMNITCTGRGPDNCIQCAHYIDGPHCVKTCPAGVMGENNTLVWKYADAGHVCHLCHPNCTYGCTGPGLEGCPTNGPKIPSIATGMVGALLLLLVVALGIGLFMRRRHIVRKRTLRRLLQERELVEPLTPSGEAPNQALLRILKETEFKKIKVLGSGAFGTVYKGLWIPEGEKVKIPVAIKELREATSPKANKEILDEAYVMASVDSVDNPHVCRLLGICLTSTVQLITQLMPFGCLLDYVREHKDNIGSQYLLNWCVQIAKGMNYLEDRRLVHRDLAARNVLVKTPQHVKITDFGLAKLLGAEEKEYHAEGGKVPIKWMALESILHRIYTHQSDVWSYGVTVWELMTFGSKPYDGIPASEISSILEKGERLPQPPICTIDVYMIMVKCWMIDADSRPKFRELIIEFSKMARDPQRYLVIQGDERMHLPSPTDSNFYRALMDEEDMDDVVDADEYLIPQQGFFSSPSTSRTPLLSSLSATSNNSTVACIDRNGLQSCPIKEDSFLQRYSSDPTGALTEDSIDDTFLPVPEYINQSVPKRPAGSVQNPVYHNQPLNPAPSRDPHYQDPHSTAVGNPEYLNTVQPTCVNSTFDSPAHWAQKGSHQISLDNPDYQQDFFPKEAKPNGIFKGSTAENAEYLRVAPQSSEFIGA
T5 sequence (P00533 25-1210): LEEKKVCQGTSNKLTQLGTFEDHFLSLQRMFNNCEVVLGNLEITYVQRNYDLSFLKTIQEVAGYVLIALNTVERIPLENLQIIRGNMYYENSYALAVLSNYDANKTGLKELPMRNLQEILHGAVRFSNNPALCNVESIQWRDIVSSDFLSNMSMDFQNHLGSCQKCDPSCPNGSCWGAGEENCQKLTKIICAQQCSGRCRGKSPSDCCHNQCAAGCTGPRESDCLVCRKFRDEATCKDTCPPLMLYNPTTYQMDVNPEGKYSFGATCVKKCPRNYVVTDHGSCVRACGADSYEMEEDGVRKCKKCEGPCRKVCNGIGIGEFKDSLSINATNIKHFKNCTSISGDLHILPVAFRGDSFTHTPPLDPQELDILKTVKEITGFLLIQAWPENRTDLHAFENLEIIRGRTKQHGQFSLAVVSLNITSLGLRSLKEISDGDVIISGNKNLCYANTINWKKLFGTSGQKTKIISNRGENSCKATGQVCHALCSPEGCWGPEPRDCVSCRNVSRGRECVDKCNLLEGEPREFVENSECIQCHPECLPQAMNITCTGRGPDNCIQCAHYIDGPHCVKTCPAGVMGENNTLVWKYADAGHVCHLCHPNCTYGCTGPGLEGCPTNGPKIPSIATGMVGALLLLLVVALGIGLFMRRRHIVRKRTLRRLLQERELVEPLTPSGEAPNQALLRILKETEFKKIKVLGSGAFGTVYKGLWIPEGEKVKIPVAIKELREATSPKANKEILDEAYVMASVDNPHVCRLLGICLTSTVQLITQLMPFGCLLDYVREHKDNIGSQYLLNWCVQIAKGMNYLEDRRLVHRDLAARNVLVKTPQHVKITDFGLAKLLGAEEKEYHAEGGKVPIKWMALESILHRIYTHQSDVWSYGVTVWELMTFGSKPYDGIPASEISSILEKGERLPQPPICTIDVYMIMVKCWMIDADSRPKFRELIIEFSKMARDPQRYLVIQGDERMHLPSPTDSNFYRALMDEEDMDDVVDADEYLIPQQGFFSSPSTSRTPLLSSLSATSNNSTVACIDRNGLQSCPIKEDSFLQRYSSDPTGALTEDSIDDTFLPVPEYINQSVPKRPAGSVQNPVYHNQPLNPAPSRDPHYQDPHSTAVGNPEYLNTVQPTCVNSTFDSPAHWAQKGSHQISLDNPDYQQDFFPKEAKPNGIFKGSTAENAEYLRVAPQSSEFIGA

IC50 [1] [nM] | IC50 (EGFR L858R (Ba/F3 cells) [2]) [nM] | IC50 [3] [nM] | IC50 [4] [nM] | IC50 (EGFR L858R (Ba/F3 cells) [5]) [nM] | IC50 (EGFR WT (Ba/F3 cells)) [nM] | IC50 [6] [nM] | IC50 [7] [nM] | IC50 [8] [nM] | IC50 [9] [nM] | IC50 [10] [nM] | IC50 [11] [nM] | IC50 [12] [nM] | IC50 [13] [nM] | IC50 (EGFR (CUTO14 cells)) [nM] | Structure (SMILES)
< 100 | < 100 | < 100 | < 100 | < 100 | 100 to 1000 | < 100 | < 100 | < 100 | < 100 | < 100 | < 100 | < 100 | < 100 | < 100 | COc1c(F)cccc1Nc1c(-c2ccncc2F)[nH]c2c1C(=O)NC[C@@H]2CC1COCCO1 (stereo in doubt) [Compound 525, (7S)-7-[(2R)-1,4-dioxan-2-ylmethyl]-3-[(3-fluoro-2-methoxyphenyl)amino]-2-(3-fluoropyridin-4-yl)-1H,5H,6H,7H-pyrrolo[3,2-c]pyridin-4-one]
< 100 | < 100 | < 100 | < 100 | < 100 | 100 to 1000 | < 100 | < 100 | < 100 | < 100 | < 100 | < 100 | < 100 | < 100 | < 100 | COCC[C@@H]1CNC(=O)c2c1[nH]c(-c1ccncc1F)c2Nc1cccc(F)c1OC [421b]
< 100 | < 100 | < 100 | < 100 | < 100 | 100 to 1000 | < 100 | < 100 | < 100 | < 100 | < 100 | < 100 | < 100 | < 100 | < 100 | COCC[C@@H]1CNC(=O)c2c1[nH]c(-c1ccncn1)c2Nc1cccc(Cl)c1OC [445a]
< 100 | < 100 | < 100 | < 100 | < 100 | 100 to 1000 | < 100 | < 100 | < 100 | < 100 | < 100 | < 100 | < 100 | < 100 | < 100 | COCC[C@H]1CNC(=O)c2c1[nH]c(-c1ccnc(C)n1)c2Nc1cccc(Cl)c1OC [463b]
< 100 | < 100 | < 100 | < 100 | < 100 | 100 to 1000 | < 100 | < 100 | < 100 | < 100 | < 100 | < 100 | < 100 | < 100 | < 100 | COc1c(Cl)cccc1Nc1c(-c2ccncc2F)[nH]c2c1C(=O)NC[C@@]21CCN(CC(F)(F)F)C1 [compound 817]
